The structures appear in SMILES notation. Counter-ions that a name gives are not always drawn.

By IC50 is commonly meant the concentration that inhibits the measured activity by half.

One experiment addresses T1, menin and MLL (menin, Flag tagged; biotinylated MLL1 peptide 1-46aa) (Homo sapiens, UniProt O00255).
T1 sequence (O00255 1-610): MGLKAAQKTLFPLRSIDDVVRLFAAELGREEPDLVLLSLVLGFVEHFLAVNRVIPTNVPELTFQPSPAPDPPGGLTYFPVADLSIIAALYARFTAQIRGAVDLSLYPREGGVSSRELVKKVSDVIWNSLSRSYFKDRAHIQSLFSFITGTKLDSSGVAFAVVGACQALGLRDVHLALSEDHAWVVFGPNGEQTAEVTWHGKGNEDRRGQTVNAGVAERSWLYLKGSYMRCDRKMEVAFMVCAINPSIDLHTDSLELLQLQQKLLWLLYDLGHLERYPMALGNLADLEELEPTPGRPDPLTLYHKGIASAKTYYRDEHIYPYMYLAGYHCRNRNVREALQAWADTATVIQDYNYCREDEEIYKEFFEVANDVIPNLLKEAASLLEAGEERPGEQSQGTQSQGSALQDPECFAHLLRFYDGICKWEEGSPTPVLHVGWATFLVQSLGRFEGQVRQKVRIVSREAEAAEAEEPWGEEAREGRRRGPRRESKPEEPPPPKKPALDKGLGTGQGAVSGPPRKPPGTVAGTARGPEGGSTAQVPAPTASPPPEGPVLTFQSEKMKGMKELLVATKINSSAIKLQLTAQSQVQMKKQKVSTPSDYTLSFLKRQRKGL
Nature of the experiment: biochemical.
Details: not given
On to `COc1cc(-c2ccc(CN[C@H]3C[C@@H](O)[C@@H](N(C)c4ncnc5sc(CC(F)(F)F)cc45)C3)cc2)nnc1OC1CCCOC1` (mixture of isomers) [Example 108, (1R,2S,4R)-4-{[(4-{5-methoxy-6-[(oxan-3-yl)oxy]pyridazin-3-yl}phenyl)methyl]amino}-2-{methyl[6-(2,2,2-trifluoroethyl)thieno[2,3-d]pyrimidin-4-yl]amino}cyclopentan-1-ol hydrochloride], for which 1.3 nM corresponded to half-maximal inhibition (IC50).

Staying with this experiment, now noted: IC50, binding inhibitory activity between menin and MLL, AlphaLISA; 1 nM menin, 10 nM biotinylated MLL1 peptide.
Molecule `CN(c1ncnc2sc(CC(F)(F)F)cc12)[C@H]1C[C@@H](NCc2cccc(-c3cccnc3)c2)C[C@H]1O` [Example 124, (1R,2S,4R)-2-{methyl[6-(2,2,2-trifluoroethyl)thieno[2,3-d]pyrimidin-4-yl]amino}-4-({[3-(pyridin-3-yl)phenyl]methyl}amino)cyclopentan-1-ol hydrochloride] gave an IC50 of 182 nM.
Same read-out and setting: the same measure for `COc1nc(N(C)[C@H]2C[C@@H](NCc3ccc(-c4nn(C(F)F)c(=O)cc4OC)cc3)C[C@H]2O)c2cc(CC(F)(F)F)sc2n1` [Example 111, 2-(difluoromethyl)-6-[4-({[(1R,3R,4S)-3-hydroxy-4-{[2-methoxy-6-(2,2,2-trifluoroethyl)thieno[2,3-d]pyrimidin-4-yl](methyl)amino}cyclopentyl]amino}methyl)phenyl]-5-methoxypyridazin-3(2H)-one hydrochloride]: 42.3 nM.
As to `C=CC(=O)N(C)c1nnc(-c2ccc(CN[C@H]3C[C@@H](O)[C@@H](N(C)c4nc(OC)nc5sc(CC(F)(F)F)cc45)C3)cc2)cc1OC` [Example 113, N-{6-[4-({[(1R,3R,4S)-3-hydroxy-4-{[2-methoxy-6(2,2,2-trifluoroethyl)thieno[2,3-d]pyrimidin-4-yl](methyl)amino}cyclopentyl]amino}methyl)phenyl]-4-methoxypyridazin-3-yl}-N-methylprop-2-enamide hydrochloride], the half-maximal inhibitory concentration (IC50) stood at 29.2 nM. The IC50 values of the last two molecules are within 1.5-fold of each other.
`COc1cncc(-c2ccc(CN[C@H]3C[C@@H](O)[C@@H](N(C)c4ncnc5sc(CC(F)(F)F)cc45)C3)cc2)c1` [Example 129, (1R,2S,4R)-4-({[4-(5-methoxypyridin-3-yl)phenyl]methyl}amino)-2-{methyl[6-(2,2,2-trifluoroethyl)thieno[2,3-d]pyrimidin-4-yl]amino}cyclopentan-1-ol Hydrochloride]: the IC50 turned out to be 5.5 nM. Against the preceding molecule, the IC50 is about 5.3-fold lower.
For `COc1cc(-c2cnc(OC)c(OC)c2)ccc1CN[C@H]1C[C@@H](O)[C@@H](N(C)c2ncnc3sc(CC(F)(F)F)cc23)C1` [Example 77, (1R,2S,4R)-4-({[4-(5,6-dimethoxypyridin-3-yl)-2-methoxyphenyl]methyl}amino)-2-{methyl[6-(2,2,2-trifluoroethyl)thieno[2,3-d]pyrimidin-4-yl]amino}cyclopentan-1-ol hydrochloride], the IC50 was determined as 10.4 nM.
For `COc1nc(N(C)[C@H]2C[C@@H](NCc3ccc(-c4cnc(N(C)C)c(OC)c4)cc3)C[C@H]2O)c2cc(CC(F)(F)F)sc2n1` [Example 117, (1R,2S,4R)-4-[({4-[6-(dimethylamino)-5-methoxypyridin-3-yl]phenyl}methyl)amino]-2-{[2-methoxy-6-(2,2,2-trifluoroethyl)thieno[2,3-d]pyrimidin-4-yl](methyl)amino}cyclopentan-1-ol hydrochloride], the IC50 is 1.4 nM.
On the same count and under the same terms, the value for `CNc1nc(N(C)[C@H]2C[C@@H](NCc3ccc(-c4ccc(F)c(OC)c4F)cc3)C[C@H]2O)c2cc(CC(F)(F)F)sc2n1` [Example 87, (1R,2S,4R)-4-{[(2′,4′-difluoro-3′-methoxy[1,1′-biphenyl]-4-yl)methyl]amino}-2-{methyl[2-(methylamino)-6-(2,2,2-trifluoroethyl)thieno[2,3-d]pyrimidin-4-yl]amino}cyclopentan-1-ol hydrochloride] was 6.6 nM; that for `CNc1ncc(-c2ccc(CN[C@H]3C[C@@H](O)[C@@H](N(C)c4ncnc5sc(CC(F)(F)F)cc45)C3)cc2)cc1OC` [Example 92, (1R,2S,4R)-4-[({4-[5-methoxy-6-(methylamino)pyridin-3-yl]phenyl}methyl)amino]-2-{methyl[6-(2,2,2-trifluoroethyl)thieno[2,3-d]pyrimidin-4-yl]amino}cyclopentan-1-ol hydrochloride] was 1.5 nM.
The same measure, in the same setting: the value for `[2H]C([2H])([2H])N(c1ncc(-c2ccc(CN[C@H]3C[C@@H](O)[C@@H](N(C)c4ncnc5sc(CC(F)(F)F)cc45)C3)cc2)cc1OC)C([2H])([2H])[2H]` [Example 122, (1R,2S,4R)-4-({[4-(6-{bis[(^2H3)methyl]amino}-5-methoxypyridin-3-yl)phenyl]methyl}amino)-2-{methyl[6-(2,2,2-trifluoroethyl)thieno[2,3-d]pyrimidin-4-yl]amino}cyclopentan-1-ol] was 1.7 nM.

Still in this experiment, the particulars now being: cell free IC50 (nM), 1 nM menin, 10 nM biotinylated MLL1 peptide, AlphaLISA.
In turn, `CN(c1ncnc2sc(CC(F)(F)F)cc12)[C@@H]1CC[C@H](NCc2ccc(OCCN3CCOCC3)cc2)C1` [Example 30, (1R,3S)-N^1-methyl-N^3-({4-[2-(morpholin-4-yl)ethoxy]phenyl}methyl)-N^1-[6-(2,2,2-trifluoroethyl)thieno[2,3-d]pyrimidin-4-yl]cyclopentane-1,3-diamine hydrochloride] yielded an IC50 of 44.6 nM.
Molecule `COc1cncc(-c2ccc(CN[C@@H]3C[C@H](O)C[C@H](Nc4ncnc5sc(CC(F)(F)F)cc45)C3)cc2)c1` (single isomer, unassigned) [Example 15B, Hydrochloride] yielded an IC50 of 403 nM.
Same read-out and setting: the same measure for `OCCN(c1ncnc2sc(CC(F)(F)F)cc12)[C@@H]1CC[C@H](NCc2ccc(-c3cccnc3)cc2)C1` [Example 42, 2-{[(1R,3S)-3-({[4-(pyridin-3-yl)phenyl]methyl}amino)cyclopentyl][6-(2,2,2-trifluoroethyl)thieno[2,3-d]pyrimidin-4-yl[amino}ethan-1-ol hydrochloride]: 105 nM.
Turning to `CN(c1ncnc2sc(CC(F)(F)F)cc12)[C@@H]1CC[C@H](NCc2ccc(-c3ccc(=O)[nH]c3)cc2)C1` [Example 11, 5-[4-({[(1S,3R)-3-{methyl[6-(2,2,2-trifluoroethyl)thieno[2,3-d]pyrimidin-4-yl]amino}cyclopentyl]amino}methyl)phenyl]pyridin-2(1H)-one Hydrochloride], half-maximal inhibition (IC50) was put at 63.9 nM. This IC50 lies about 1.6-fold lower than the previous one.
`COc1cncc(-c2ccc(CN[C@H]3C[C@@H](Nc4ncnc5sc(CC(F)(F)F)cc45)C[C@@H](C(=O)N(C)C)C3)cc2)c1` (single isomer, unassigned) [Example 17A, Hydrochloride] showed an IC50 of 2260 nM.
Turning to `FC(F)(F)Cc1cc2c(N[C@@H]3CCC[C@H](NCc4ccc(-c5nnc[nH]5)cc4)C3)ncnc2s1` [Example 37, (1S,3R)-N^1-{[4-(4H-1,2,4-triazol-3-yl)phenyl]methyl}-N^3-[6-(2,2,2-trifluoroethyl)thieno[2,3-d]pyrimidin-4-yl]cyclohexane-1,3-diamine hydrochloride], the IC50 is 701 nM. Against the preceding molecule, the IC50 is about 3.2-fold lower.
On the same count and under the same terms, the value for `CC(=O)Nc1ccc(CN[C@H]2CCC[C@@H](Nc3ncnc4sc(CC(F)(F)F)cc34)C2)cc1` [Example 29, N-[4-({[(1S,3R)-3-{[6-(2,2,2-trifluoroethyl)thieno[2,3-d]pyrimidin-4-yl]amino}cyclohexyl]amino}methyl)phenyl]acetamide hydrochloride] was 464 nM.
